# From PubChem BioAssay AID1902 (Broad Institute, 2009)
# Values joined by “and” are separate entries in the source; they are usually repeats but may differ in a detail not shown here. Equal values may be shown once. Active and inactive are the calls of the source.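 Rule for the calls: active = EC50 no more than a set limit of log units above the highest dose; inactive = the rest.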
# Target: S. pyogenes SKKanGAS, kanamycin survival, BacTiterGlo, 6 h
# Test: SKKanGAS survival reduction under kanamycin, dose response, streptokinase promoter inhibitor project, SKKanGAS strain, luminescence, dose confirmation (AID 1902);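 note: lower survival reflects blocked streptokinase promoter driving kanamycin resistance gene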
row,Structure (SMILES),EC50
1,Cc1ccc(Cn2cc(/C=N/NC(=O)Cc3nnc(NC(=O)c4ccc(C)cc4)s3)c3ccccc32)cc1,4240 nM
2,O=C(N/N=C/c1ccccc1O)c1cccc2ccccc12,3080 nM
3,N#C/C(=C(/O)c1ccc([N+](=O)[O-])o1)c1nc2ccccc2[nH]1,2050 nM
4,CCCCC[n+]1ccn(C2=C([O-])c3ccccc3C(=O)/C2=N\S(=O)(=O)c2ccccc2)c1,2580 nM
5,COc1ccc(-c2oc(NC(=O)CCl)c(C#N)c2-c2ccc(OC)cc2)cc1,3110 nM
6,C=CC1=C(C(=O)O)N2C(=O)[C@@H](NC(=O)/C(=N/OCC(=O)O)c3csc(N)n3)[C@H]2SC1,< 60 nM
7,O=C(NC(NC(=S)Nc1cccc(Cl)c1)C(Cl)(Cl)Cl)OCc1ccccc1 (configuration not stated),1780 nM
8,O=C(CSc1nnc(NC(=O)c2cccc(F)c2)s1)NCC1CCCO1 (configuration not stated),> 15000 nM (inactive)
9,CC(=O)OCC1=C(C(=O)O)N2C(=O)C(NC(=O)C(C)Cn3nc(C)c(Cl)c3C)C2SC1 (configuration not stated),2950 nM
10,FC(F)Oc1ccccc1C1CC(c2ccc(Br)s2)Nc2ncnn21 (configuration not stated),2840 nM
11,CC(C)C(=O)NC(c1ccccc1)c1cc([N+](=O)[O-])c2cccnc2c1O (configuration not stated),2480 nM
12,CCc1ccc(/C=C2/SC(=S)N(CC(=O)Nc3nc4ccccc4s3)C2=O)cc1,2520 nM
13,O=C(Nc1nc(-c2ccccn2)cs1)c1cccc(-n2cnnn2)c1,2300 nM
14,Cc1cc(C)c2[nH]c(O)c(N=Nc3ccc(C(=O)O)cc3)c2c1,1800 nM
15,N#Cc1ccc(NC(=O)Nc2ccc(Cl)cc2)cc1,6030 nM
16,Cc1ccc(C(O)(C(=O)NNc2ccc3ccccc3n2)c2ccc(C)cc2)cc1,2040 nM and 2980 nM
17,COc1ccccc1-c1n[nH]c2c1[C@H](C)CC[C@H]2C(C)C,2810 nM
18,COc1ccc(C(Nc2cc(C)ccn2)c2ccc3ccc(C)nc3c2O)cc1 (configuration not stated),12500 nM
19,CC(C)CC(=O)NC(=S)NNC(=O)c1ccc(NC(=O)C2CCCCC2)cc1,546 nM
20,CC(=O)Oc1c(I)cc(I)cc1C(=O)Nc1ccc(Cl)cc1,394 nM
21,Cc1cccc(-c2oc3ccccc3c2-c2ccc3c(c2)OCO3)c1,3650 nM
22,CC(C)Cc1csc(NC(=O)c2ccc(Br)cc2)c1C(=O)O,1570 nM
23,NNc1nc(-c2ccccc2)c2cc(Br)ccc2n1,9120 nM
24,CCC(=O)Oc1ccc(-c2nc(-c3cccnc3)no2)cc1,4300 nM
25,COc1ccccc1Oc1cn[nH]c1-c1ccc(OCC(=O)NN)cc1O,> 15000 nM (inactive)
26,COc1ccc(N(CC(=O)NCCSCc2cccc(Cl)c2)S(C)(=O)=O)cc1Cl,4720 nM

row,Structure (SMILES),EC50
1,CCOc1ccc(/C=C2/Sc3ccc(C(=O)N4CCN(C(=O)c5ccco5)CC4)cc3N(C)C2=O)cc1OC,4190 nM
2,Cc1ccc(CN(C(=O)c2ccco2)C2CCS(=O)(=O)C2)cc1 (configuration not stated),> 15000 nM (inactive)
3,COc1cc(/C=N/Nc2ncnc3sc4c(c23)CCC4)ccc1O,2110 nM
4,Cc1ccc(Cl)cc1NC1=C/C(=N\S(=O)(=O)c2cccs2)c2ccccc2C1=O,908 nM
5,Cc1cc2nc(CSc3ccccc3)cc(=O)n2[nH]1,3820 nM
6,COc1ccc(C(=O)NNC(=S)NC(=O)c2ccccc2)cc1,995 nM
7,C/C(=N\Nc1cc(N2CCCCC2)nc(C)n1)c1ccc(Br)cc1,4460 nM
8,CCCCn1c(O)c(C(C)=Nc2ccc(OCC)cc2)c(=O)[nH]c1=O,9750 nM
9,Cc1nnc(SCC2=C(C(=O)O)N3C(=O)C(NC(=O)Cn4nc(C)c(Cl)c4C)C3SC2)s1 (configuration not stated),< 60 nM
10,COc1ccccc1-c1cc(-c2ccccc2)nc(SCC(=O)O)c1C#N,1970 nM
11,CCCc1cc(=O)n2[nH]c(C)c(-c3ccc(Cl)cc3)c2n1,5810 nM
12,Cc1c(C(=O)N2CCC(Cc3ccccc3)CC2)sc2ncnc(N3CCC(C)CC3)c12,6310 nM
13,CCCN(Cc1ccco1)S(=O)(=O)c1ccc(OC)c(OC)c1,> 15000 nM (inactive)
14,CCc1ccc2nc(N3C(=O)C(O)=C(C(=O)c4ccco4)C3c3cccs3)sc2c1 (configuration not stated),1880 nM
15,CCOc1ccc2c(c1)c1nnc(SCC(=O)N3CCC(C)CC3)nc1n2C,15600 nM
16,CCOC(=O)c1ccc(NC(=O)CC2S/C(=N/N=C/c3c[nH]c4ccccc34)NC2=O)cc1 (configuration not stated),7730 nM
17,COC(=O)c1ccc2[nH]c3cccc(/C(=C/c4ccccc4)c4ccccc4)c3c2c1,1120 nM
18,O=c1[nH]c(CSc2ncnc3sccc23)nc2ccccc12,2250 nM
19,O=C1c2ccc3c4c(ccc(c24)C(=O)N1c1cccc(O)c1)C(=O)N(c1cccc(O)c1)C3=O,1270 nM
20,CCCCSc1ccc2nc(-c3ccc(C#N)cc3)cn2c1,7720 nM
21,Cc1ccc(C(c2cc(Cl)c3cccnc3c2O)N2CCN(C)CC2)cc1 (configuration not stated),1840 nM
22,c1ccc(-c2nc(C3CCCCC3)c3sccc3n2)cc1,3310 nM
23,CC/C(=N\NC(=S)Nc1cc(C)ccc1C)c1ccc(OC(F)F)cc1,3130 nM
24,O=C(Nc1nnc(C2CCCCC2)s1)c1ccc(Br)s1,3990 nM
25,Clc1ccc2c(N/N=C/c3cccc(Br)c3)ccnc2c1,2860 nM
26,Cn1c2ccccc2c(=O)c2c(=O)n(-c3ccc(F)cc3)c(-c3cccs3)nc21,4760 nM

row,Structure (SMILES),EC50
1,FC(F)(F)c1cc(Nc2ccccc2)nc(-c2ccccn2)n1,15200 nM
2,Cc1cccc(NC2=NC(C)(C)N=C(N)N2)c1,109 nM
3,Cc1cccc(NC(=O)c2ccc(S(=O)(=O)N(C)CC3CCCO3)cc2)c1C (configuration not stated),> 15000 nM (inactive)
4,CC(C)c1c(C(=O)N/N=C/c2cccc(OCc3ccccc3)c2)nnn1-c1nonc1N,9400 nM
5,CC(C)c1ccc(-n2c(O)c(/C=N/NC(=O)c3ccccc3O)c(=O)[nH]c2=S)cc1,7000 nM
6,CS(=O)(=O)Nc1ccc(C2=NN(C(=O)C3CCCCC3)C(c3cccs3)C2)cc1 (configuration not stated),3940 nM
7,COc1ccc(C(=O)c2ccc(N3CCN(C4CC(=O)NC4=O)CC3)cc2)cc1F (configuration not stated),2760 nM
8,Cc1cc(C)c2ccc(N)nc2c1O,3330 nM
9,CN(C)[C@@H]1C(=O)C(C(N)=O)=C(O)[C@@]2(O)C(=O)C3=C(O)c4c(O)cccc4[C@@](C)(O)C3C[C@@H]12 (some centres not stated),96 nM
10,COc1ccc(/C=C2/Sc3ccc(C(=O)N4CCc5ccccc5C4)cc3NC2=O)cc1,1650 nM
11,COc1ccc2[nH]c3c(C)c4ccncc4c(C)c3c2c1,1870 nM
12,O=C(Oc1cccc2c(O)cccc12)c1ccccc1,> 15000 nM (inactive)
13,CC(=O)[C@]1(O)Cc2c(O)c3c(c(O)c2[C@@H](O[C@H]2C[C@H](N)[C@H](O)[C@H](C)O2)C1)C(=O)c1ccccc1C3=O,1130 nM
14,O=C(NNc1c2ccccc2nc2ccccc12)c1ccc(O)cc1O,3150 nM
15,O=C(CSc1nc2c(cnn2-c2ccccc2)c(=O)[nH]1)N1N=C(c2cccs2)CC1c1ccc(F)cc1 (configuration not stated),1620 nM
16,CCOC(=O)c1c(NC(=O)c2c(N)n(CCCOC)c3nc4ccccc4nc23)sc2c1CCCC2,8850 nM
17,CO[C@H]1C=CO[C@@]2(C)Oc3c(C)c(O)c4c(O)c(c5c(nc6cc(C)ccn65)c4c3C2=O)NC(=O)C(C)=CC=C[C@H](C)[C@H](O)[C@@H](C)[C@@H](O)[C@@H](C)[C@H](OC(C)=O)[C@@H]1C,< 60 nM
18,CO[C@H]1C=CO[C@@]2(C)Oc3c(C)c(O)c4c(O)c(c(C=NN5CCN(C)CC5)c(O)c4c3C2=O)NC(=O)C(C)=CC=C[C@H](C)[C@H](O)[C@@H](C)[C@@H](O)[C@@H](C)[C@H](OC(C)=O)[C@@H]1C,< 60 nM
19,COc1ccccc1/C=N\Nc1cc(C)nc(-n2nc(C)cc2C)n1,6260 nM
20,CCC(=C/c1sc2ccc3ccccc3c2[n+]1C)/C=C1\Sc2ccc3ccccc3c2N1C,2670 nM
21,C[C@@H]1CC[C@@]2(OC1)O[C@H]1C[C@H]3[C@@H]4CC=C5C[C@@H](O)[C@H](O)C[C@]5(C)C4CC[C@]3(C)[C@H]1[C@@H]2C (some centres not stated),4120 nM
22,OC(COCC(F)(F)C(F)(F)C(F)(F)C(F)F)Cn1c2ccc(Cl)cc2c2cc(Cl)ccc21 (configuration not stated),2160 nM
23,CCN(c1ccccc1)S(=O)(=O)c1ccc(C(=O)Nc2nnc(CSC)o2)cc1,3700 nM
24,Cc1cc(C)nc(-n2nc(C)c(Sc3ccc(F)cc3)c2N)n1,> 15000 nM (inactive)
25,CCCCCCC(=O)N/N=C/c1c(O)n(C(C)CC)c(=S)[nH]c1=O (configuration not stated),3220 nM
26,CCn1cc(C(=O)NCc2ccc3c(c2)OCO3)c(=O)c2cc(F)c(N3CCN(C(=O)c4ccco4)CC3)cc21,9900 nM

row,Structure (SMILES),EC50
1,CCc1ccc(-c2ccc3nnc(SCC(N)=O)n3n2)cc1,1660 nM
2,CCOc1ccc(-c2nnc3ccc(SC(C)C)nn23)cc1,2150 nM
3,CN1C(=O)/C(=C/c2ccccc2F)Sc2ccc(C(=O)N3CCCC3)cc21,1060 nM
4,Cc1ccc(S(=O)(=O)Nc2cccc3cccnc23)c([N+](=O)[O-])c1,632 nM
5,COc1ccc(Cl)cc1C(=O)NNC(=S)NC(=O)c1cc(-c2ccccc2)nc2ccccc12,81 nM
6,CC(=O)NC(c1ccccc1)c1cc(Cl)c2cccnc2c1O (configuration not stated),1170 nM
7,COC(=O)c1c(NC(=O)c2ccccc2)sc(C(=O)c2ccccc2)c1C,5400 nM
8,N[C@@H](C(=O)N[C@@H]1C(=O)N2C(C(=O)O)=C(Cl)CS[C@H]12)c1ccccc1,465 nM
9,Cc1cc(NC(=O)c2c(F)cccc2Cl)n(-c2nc3ccccc3[nH]2)n1,8040 nM
10,CSc1nc(Oc2ccc3ccccc3c2)c2sccc2n1,7580 nM
11,Nc1[nH]n2c(=O)c3c(nc2c1N=Nc1ccc(Cl)cc1)CCCC3,6130 nM
12,COc1cccc(NC(=O)Nc2nc(SC(C)(C)C)ns2)c1,8160 nM
13,O=S(=O)(Nc1ccc(-c2csc(-c3ccccc3)n2)cc1)c1ccc(F)cc1,1920 nM
14,O=C(NNC(=O)c1ccccc1OCc1ccccc1Cl)c1csc(N2CCOCC2)n1,5040 nM
15,COc1ccc(CNC(=O)c2c(C)oc3c2C(=O)c2ccccc2C3=O)cc1,810 nM
16,COc1ccc(/C=C/C(=O)NC(=S)N2CCN(c3ccccc3OC)CC2)cc1,> 15000 nM (inactive)
17,C/C(N)=C(/C#N)C(=O)CSc1nc2scc(-c3ccccc3)c2c(=O)n1C,1620 nM
18,COc1ccc(C2C(C(=O)c3ccccc3)=C(C)Nc3nc4ccccc4n32)c(OC)c1 (configuration not stated),6100 nM
19,Cc1ccc(NS(=O)(=O)c2cc([N+](=O)[O-])ccc2NNC(=S)Nc2cccc(Cl)c2)c(C)c1,865 nM
20,Cc1ccc(Nc2c(-c3ccccn3)nc3cccc(C)n23)cc1,322 nM
21,COc1c(CC=C(C)C)cc(C2CC(=O)c3c(O)cc(O)cc3O2)cc1CC=C(C)C (configuration not stated),1990 nM
22,O=C(N/N=C\C=C\c1ccc([N+](=O)[O-])o1)c1cccs1,1970 nM
23,Cc1ccc(O)c(/C=N/NC(=O)Cc2ccc(Cl)cc2)c1,2780 nM
24,Cc1ccc(Cn2c(C(CO)Nc3nc(-c4ccc(F)cc4)cs3)nc3ccccc32)cc1 (configuration not stated),3350 nM
